According to US20010031282A1, “Process for the manufacture of a pulverous preparation” (ROCHE VITAMINS INC., priority 1996, published 2001):
Where two headings read alike, the source gives them in different places.

Assays:
[1] = Solubility of pharmaceuticals in carbon dioxide (Example 7); assay type: physicochemical
Procedure: (§1) A comparison of solubility's of a number of pharmaceuticals was performed in the following way:
(§2) Approximately 3-5 g of the pharmaceutical was slightly compressed in an uniaxial press to avoid the formation of a stable suspension. The so compressed powder was given in a pressure chamber with a sapphire glass (30 ml volume). The temperature of the pressure chamber was controlled by water bath. Then the pressure in the chamber was increased using the corresponding gas and equilibrated for 1-3 hours. After equilibration a defined sample (1.0 ml) was drawn under constant pressure and temperature conditions using a high pressure line with a defined volume. […] The sample container was afterwards rinsed with the same liquid to collect the residues of the substance in the sample container.
(§3) The solubility (G/V) was determined either by HPLC or gravimetrically after removing the liquid.

[2] = Solubility of pharmaceuticals in dimethylether (Example 7); assay type: physicochemical
Procedure: as §1, §2, §3

[3] = Volume weighted particle size distribution after spraying (Examples 8, 9); assay type: physicochemical; conditions: dissolved at 40° C., 200×10^5 Pa, sprayed into second autoclave
Procedure: 100 g of solid Orlistat in a container with two sinter plates was charged into an autoclave having a volume of 6 l. The autoclave was kept at a temperature of 40° C. with a water bath. Then the autoclave was filled with gas up to a pressure of 200×10^5 Pa and equilibrated for 90 min. The autoclave was connected to a second autoclave via a heated high pressure line, kept at 40° C. This second autoclave has a volume of 4 l. The dissolved Orlistat was sprayed into this second autoclave. Thereby the pressure of the first autoclave was kept constant at 200×10^5 Pa by pumping in additional gas. The resulting volume weighted particle size distribution is as follows: 100 g of solid Saquinavir in a container with two sinter plates was charged into an autoclave having a volume of 6 l. The autoclave was kept at a temperature of 40° C. with a water bath. Then the autoclave was filled with gas up to a pressure of 200×10^5 Pa and equilibrated for 90 min. The autoclave was connected to a second autoclave via a heated high pressure line, kept at 40° C. This second autoclave has a volume of 4 l. The dissolved Saquinavir was sprayed into this second autoclave. Thereby the pressure of the first autoclave was kept constant at 200×10^5 Pa by pumping in additional gas. The resulting volume weighted particle size distribution is as follows: […]

[4] = Procedure: 250 g of solid trans-apoester (Ethyl-8′-apo-β-carotene-8′oate) were charged into an autoclave. The autoclave was adjusted to a temperature of 67° C. […] 1003 g of the solution was sprayed into a spray-tower via a nozzle having a bore hole of 0.2 mm. The flow rate was 84 g/min. During the spray procedure the pressure in the autoclave was maintained at 150×10^5 Pa by supplementation with fresh dimethyl ether. The sample composition was determined gravimetrically.
[5] = 500 bar, cited from earlier work
[6] = cited from earlier work
[7] = carbon dioxide or dinitrogen monoxide, pressures up to 500 bar; cited from earlier work
[8] = Stability of β-carotene in liquid solutions with highly compressible gases; assay type: physicochemical; conditions: temperatures in the region of its melting point of 180° C.
Procedure: In analogy to the procedure described in WO 95/21688 it has been investigated whether β-carotene forms liquid solutions with the mentioned and other highly compressible substances. β-Carotene forms liquid solutions with the gases only at temperatures in the region of its melting point of 180° C.

[9] = Solubility / miscibility of β-carotene in dimethyl ether; assay type: physicochemical
Procedure: It has now been discovered that dimethyl ether is useful as a solvent for β-carotene in processes such as those described above where the material to be produced as a powder is dissolved in a solvent at high temperature and pressure, and then the pressure is reduced whereby the solubility of the dissolved material decreases to the point where it precipitates from the solution as a fine powder. […] From PCT Patent Publication WO 96/15133 it is already known that dimethyl ether is an excellent solvent at elevated temperature and pressure conditions. The solubility of β-carotene in liquid dimethyl ether is strongly temperature dependent. About 1.1 wt. % of β-carotene dissolve in liquid dimethyl ether (vapour pressure 4 bar) at 25° C. At 60° C. (vapour pressure 15 bar) already 2.7 wt. % dissolve. At higher pressures (up to 300 bar) the solubility is practically not increased in this temperature region.
Thus, a homogeneous solution of β-carotene and dimethyl ether exists at 105° C. and pressures above 140 bar.
250 g of solid trans-β-carotene were charged into an autoclave having a volume of 1 l. The autoclave was thermostatted electrically to a temperature of 105° C. 500 g of dimethyl ether (cosmetic grade) were pumped into the autoclave. Dissolution of the carotene took about 60 minutes, with shaking of the autoclave. The pressure was then 175×10^5 Pa. A sample was taken at both the top and bottom lids of the autoclave. The sample compositions were determined gravimetrically. Both samples gave a carotene content of 33 wt. % and a dimethyl ether content of 67 wt. %, i.e. a homogeneous phase of carotene and dimethyl ether was present in the autoclave.

## COc1ccccc1Oc1c(NS(=O)(=O)c2ccc(C(C)(C)C)cc2)nc(-c2ncccn2)nc1OCCO [Bosentan]
[1]; 45° C./200×10^5 Pa
  solubility (CO2): <0.1 % (g/V)
[2]; 45° C./200×10^5 Pa
  solubility (CH3—O—CH3): 9.0 % (g/V)

## CC1=C(/C=C/C(C)=C/C=C/C(C)=C\C(=O)O)C(C)(C)CCC1 [Isotretionin]
[1]; 45° C./200×10^5 Pa
  solubility (CO2): 0.3 % (g/V)
[2]; 45° C./200×10^5 Pa
  solubility (CH3—O—CH3): 6.0 % (g/V)

## O=C(NCCN1CCOCC1)c1ccc(Cl)cc1 [Moclobemide]
[1]; 45° C./200×10^5 Pa
  solubility (CO2): 0.35 % (g/V)
[2]; 45° C./200×10^5 Pa
  solubility (CH3—O—CH3): 3.7 % (g/V)

## CCCCCCCCCCC[C@@H](C[C@@H]1OC(=O)[C@H]1CCCCCC)OC(=O)[C@H](CC(C)C)NC=O [Orlistat]
[1]; 30° C./100×10^5 Pa
  solubility (CO2): 0.6 % (g/V)
[3]
  particle size, 10% of the particles (volume weighted): ≦0.40 μm
  particle size, 50% of the particles (volume weighted): ≦1.02 μm
  particle size, 90% of the particles (volume weighted): ≦2.43 μm
[2]; 20° C./4.5×10^5 Pa
  solubility (CH3—O—CH3): 17.8 % (g/V)

## CC(C)(C)NC(=O)[C@@H]1C[C@@H]2CCCC[C@@H]2CN1C[C@@H](O)[C@H](Cc1ccccc1)NC(=O)[C@H](CC(N)=O)NC(=O)c1ccc2ccccc2n1 [Saquinavir]
[1]; 45° C./200×10^5 Pa
  solubility (CO2): <0.1 % (g/V)
[3]
  particle size, 10% of the particles (volume weighted): ≦0.4 μm
  particle size, 50% of the particles (volume weighted): ≦0.9 μm
  particle size, 90% of the particles (volume weighted): ≦1.8 μm
[2]; 25° C./100×10^5 Pa
  solubility (CH3—O—CH3): >10 % (g/V)

## CCOC(=O)/C(C)=C/C=C/C(C)=C/C=C/C=C(C)/C=C/C=C(C)/C=C/C1=C(C)CCCC1(C)C [apoester, Ethyl-8′-apo-β-carotene-8′oate]
[4]; 67° C., 150×10^5 Pa, equilibrated 30 minutes
  content of the apoester in the sprayed dimethyl ether solution (gravimetric): 10 wt %
[4]; Example 6, sprayed from dimethyl ether, 67° C., 150×10^5 Pa, nozzle 0.2 mm
  particle size: 9 μm
[4]; Example 10, powder with gelatin/sucrose matrix, starch catch process
  mean particle size: 0.23 μm

## CC1=C(/C=C/C(C)=C/C=C/C(C)=C/C=C/C=C(C)/C=C/C=C(C)/C=C/C2=C(C)CCCC2(C)C)C(C)(C)CCC1 [β-carotene]
[5]; 35° C.
  solubility in carbon dioxide: 0.00049 wt. %
[5]; 55° C.
  solubility in carbon dioxide: 0.0016 wt. %
[6]; 15° C.
  dissolution in liquid sulphur dioxide: 0.59 wt. %
[6]; ethylene, 55° C., 500 bar
  highest concentration in supercritical fluids (ethylene): 0.035 wt. %
[6]; liquid solvents except CS2
  concentration in the solvents which are liquid at room temperature: below 1 wt. %
[6]; room temperature
  solubility in CS2: 3.5 wt. %
[7]
  β-carotene concentration in supercritical gases: 0.01 wt. %
[8]
  stability in liquid solution with the gases: isomerizes or decomposes after a very short time
[9]; 25° C., vapour pressure 4 bar
  solubility in liquid dimethyl ether: About 1.1 wt. %
[9]; 60° C., vapour pressure 15 bar
  solubility in liquid dimethyl ether: 2.7 wt. %
[9]; 105° C., 175×10^5 Pa, Example 1
  carotene content of the homogeneous dimethyl ether phase (gravimetric): 33 wt. %
[9]; 105° C., pressures above 140 bar
  miscibility with dimethyl ether: miscible without limitation in any ratio
